Experimental data: paper PMC2529273, “Pharmacological Properties of DOV 315,090, an ocinaplon metabolite” (BMC Pharmacology, 2008)
“And” between values parts separate entries of the source, which are not always exact repeats. Equal values may be shown once. Read-outs that look alike come from different tables or passages of the source.

What was measured:
α2β2γ2S GABAA-R [1] = molecular target: T1, α2β2γ2S GABAA-R (Rattus norvegicus, UniProt P18508+P23576); experiment: cell-based
Method: (§1) cRNAs encoding GABAA-R α1, α2, α3, α5, β2 and γ2S subunits were injected into oocytes from Xenopus laevis. […] GABA (Sigma) was prepared as a 1 M stock solution in ND96. Microelectrodes of 1–3 MΩ when filled with 3 M KCl were used to record from oocytes in a recording chamber continuously perfused with ND-96 buffer solution. During data acquisition, oocytes were clamped at a holding potential of -70 mV. Drugs were applied by perfusion at a rate of approximately 50 μl sec^-1 for 20 s followed by a 120 s wash. […] All experiments were performed at room temperature (22–24°C).
(§2) GABA concentration-response data was obtained for each subunit combination, and the GABA EC10 was determined by nonlinear regression using the logistic equation. This concentration of GABA was used for modulation studies. Peak current measurements were normalized and expressed as a fraction of the peak control current measurements. Control responses to an EC10 concentration of GABA were re-determined after every 2 – 4 applications of modulator + GABA. […] Potentiation data from each oocyte was fitted to the equation Potentiation = Emax × [Drug]/([Drug + EC50) by non-linear regression (Prism, Graph-Pad software). […] Given the lack of consistency of this possible high affinity effect, we have omitted it in fitting our concentration-effect curves. The choice of fitting to a monophasic or biphasic equation had only a small effect on the EC50 for the major component of modulation.
(§3) Rat GABAA-Rs consisting of α1β2γ2S, α2β2γ2S, α3β2γ2S and α5β2γ2S subunits were expressed in Xenopus oocytes. […] Higher concentrations (in parentheses) were excluded from the fit due to a decline in potentiation at higher concentrations.

α1β2γ2S GABAA-R [2] = molecular target: T2, α1β2γ2S GABAA-R (Rattus norvegicus, UniProt P18508+P62813); experiment: cell-based
Method: as §1, §2, §3

α5β2γ2S GABAA-R [3] = molecular target: T3, α5β2γ2S GABAA-R (Rattus norvegicus, UniProt P18508+P19969); experiment: cell-based
Method: as §1, §2, §3

α2β2γ3 GABAA-R = molecular target: T4, α2β2γ3 GABAA-R (Rattus norvegicus, UniProt P23576+P28473); experiment: biochemical; type: binding
T4 construct: expressed in transfected cells; host or cells: HEK293 (CRL 1573), transient transfection
Method: (§4) HEK293 cells (CRL 1573, American type Culture Collection, Rockville, MD, USA) were cultured in Dulbecco's modified Eagle's medium (D-MEM, Invitrogen, Carlsbad, CA, USA) supplemented with 10% fetal bovine serum (Invitrogen, Carlsbad, CA, USA) and 1% MEM Non-Essential Amino Acids Solution (Invitrogen, Carlsbad, CA, USA). cDNAs encoding rat GABAA-R subunits were in the following vectors: α1 and α5 in pRc/CMV, α2, α3, γ2S and γ3 in pcDNA3 and β2 in pcDNA1. The cells were transiently transfected (5 μg of each cDNA per 100 mm dish) using FuGene™ (Roche Diagnostics Corporation) at a 3:1 FuGene:DNA ratio. […] Forty-eight hours after transfection, cells were washed with ice-cold PBS, harvested and homogenized. Cell homogenates were centrifuged (100,000 g, 25 min) and washed three times by homogenization in ice-cold PBS buffer followed by centrifugation at 100,000 g for 25 min. The final pellets were stored at -20°C until needed.
(§5) The samples were then diluted with 5 ml of ice-cold buffer and filtered under vacuum through glass-fiber filters (GF/B Whatman). Filters were washed 3 times with 5 ml of buffer and the radioactivity was quantitated by liquid scintillation counting in 5 ml of Ecolite scintillation fluid (ICN). Non-specific binding determined in the presence of 100 μM Ro 15–1788 (Sigma-Aldrich) was subtracted from total binding to calculate specific binding. Data were analyzed by non-linear regression (Prism, Graph-Pad software).

α1β2γ3 GABAA-R = molecular target: T5, α1β2γ3 GABAA-R (Rattus norvegicus, UniProt P28473+P62813); experiment: biochemical; type: binding
T5 construct: expressed in transfected cells; host or cells: HEK293 (CRL 1573), transient transfection
Method: as §4, §5

α5β2γ3 GABAA-R = molecular target: T6, α5β2γ3 GABAA-R (Rattus norvegicus, UniProt P19969+P28473); experiment: biochemical; type: binding
T6 construct: expressed in transfected cells; host or cells: HEK293 (CRL 1573), transient transfection
Method: as §4, §5

α2β2γ2S GABAA-R [4] = molecular target: T1, α2β2γ2S GABAA-R; experiment: biochemical; type: binding
Method: as §4, §5

α3β2γ2S GABAA-R [5] = molecular target: T7, α3β2γ2S GABAA-R (Rattus norvegicus, UniProt P18508+P20236); experiment: biochemical; type: binding
Method: as §4, §5

α1β2γ2S GABAA-R [6] = molecular target: T2, α1β2γ2S GABAA-R; experiment: biochemical; type: binding
Method: as §4, §5

α5β2γ2S GABAA-R [7] = molecular target: T3, α5β2γ2S GABAA-R; experiment: biochemical; type: binding
Method: as §4, §5

in vivo = type: in vivo, rat; details: rats, 1 h after administration of ocinaplon 5 mg/kg
Method: At 1 h, corresponding to the time at which the anticonflict effect of ocinaplon was evaluated, the plasma concentration of DOV 315,090 is ~38% of the concentration of parent compound.
Figure 2 Pharmacokinetics of ocinaplon and DOV 315,090. Blood levels of ocinaplon (●,○) and DOV 315090 (▲,△) were determined at various times after i.v. (●,▲) or oral (○,△) administration of 5 mg/kg ocinaplon to rats. […] This animal may have regurgitated a portion of the dose (of the suspension).

α3β2γ2S GABAA-R [8] = molecular target: T7, α3β2γ2S GABAA-R; experiment: cell-based; type: cell-based
Method: as §1, §2, §3

[9] = [3H]Ro15-1788 displacement, n = 3, read-out: IC50
[10] = mean ± SEM, n = 3, read-out: pIC50 (converted)

T3 sequence (P19969 32-464 limits assumed): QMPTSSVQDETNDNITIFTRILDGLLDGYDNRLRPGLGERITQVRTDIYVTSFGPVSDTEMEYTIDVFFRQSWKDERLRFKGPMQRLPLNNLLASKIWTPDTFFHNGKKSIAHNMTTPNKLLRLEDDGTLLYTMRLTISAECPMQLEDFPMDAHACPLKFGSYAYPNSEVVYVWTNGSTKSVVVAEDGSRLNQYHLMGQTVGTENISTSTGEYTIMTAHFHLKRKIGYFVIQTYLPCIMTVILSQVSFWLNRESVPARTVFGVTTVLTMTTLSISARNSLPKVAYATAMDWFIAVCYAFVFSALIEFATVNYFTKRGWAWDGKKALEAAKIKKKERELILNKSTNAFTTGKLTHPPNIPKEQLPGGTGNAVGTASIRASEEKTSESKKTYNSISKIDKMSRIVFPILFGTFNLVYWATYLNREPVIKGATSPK
T3 sequence (P63138 25-474 partner limits assumed): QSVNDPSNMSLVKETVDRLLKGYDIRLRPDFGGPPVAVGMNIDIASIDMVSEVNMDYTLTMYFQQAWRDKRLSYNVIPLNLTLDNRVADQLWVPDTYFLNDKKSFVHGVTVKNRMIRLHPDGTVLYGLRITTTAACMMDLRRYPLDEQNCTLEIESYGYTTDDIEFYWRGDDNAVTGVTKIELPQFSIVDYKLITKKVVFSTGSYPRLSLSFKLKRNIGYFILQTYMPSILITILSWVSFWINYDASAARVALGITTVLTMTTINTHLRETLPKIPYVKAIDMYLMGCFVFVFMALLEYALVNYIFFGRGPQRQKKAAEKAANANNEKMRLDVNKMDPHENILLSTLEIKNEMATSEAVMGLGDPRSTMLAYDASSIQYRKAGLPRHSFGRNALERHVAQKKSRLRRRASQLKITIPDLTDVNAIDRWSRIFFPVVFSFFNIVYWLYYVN
T3 sequence (P18508 39-466): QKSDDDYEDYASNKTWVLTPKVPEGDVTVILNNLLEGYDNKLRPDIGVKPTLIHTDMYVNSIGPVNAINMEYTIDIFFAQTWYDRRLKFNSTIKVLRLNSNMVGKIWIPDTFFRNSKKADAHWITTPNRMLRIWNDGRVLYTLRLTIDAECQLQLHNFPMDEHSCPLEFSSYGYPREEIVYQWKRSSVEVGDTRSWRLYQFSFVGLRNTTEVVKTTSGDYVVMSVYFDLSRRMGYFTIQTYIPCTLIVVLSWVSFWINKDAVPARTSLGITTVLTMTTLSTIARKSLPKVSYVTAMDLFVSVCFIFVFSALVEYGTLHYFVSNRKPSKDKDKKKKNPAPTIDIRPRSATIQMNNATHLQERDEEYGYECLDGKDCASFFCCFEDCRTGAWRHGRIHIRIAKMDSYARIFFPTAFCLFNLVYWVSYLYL
T6 sequence (P19969 32-464 limits assumed): as the sequence (P19969 32-464 limits assumed) above
T6 sequence (P63138 25-474 partner limits assumed): as the sequence (P63138 25-474 partner limits assumed) above
T6 sequence (P28473 18-467): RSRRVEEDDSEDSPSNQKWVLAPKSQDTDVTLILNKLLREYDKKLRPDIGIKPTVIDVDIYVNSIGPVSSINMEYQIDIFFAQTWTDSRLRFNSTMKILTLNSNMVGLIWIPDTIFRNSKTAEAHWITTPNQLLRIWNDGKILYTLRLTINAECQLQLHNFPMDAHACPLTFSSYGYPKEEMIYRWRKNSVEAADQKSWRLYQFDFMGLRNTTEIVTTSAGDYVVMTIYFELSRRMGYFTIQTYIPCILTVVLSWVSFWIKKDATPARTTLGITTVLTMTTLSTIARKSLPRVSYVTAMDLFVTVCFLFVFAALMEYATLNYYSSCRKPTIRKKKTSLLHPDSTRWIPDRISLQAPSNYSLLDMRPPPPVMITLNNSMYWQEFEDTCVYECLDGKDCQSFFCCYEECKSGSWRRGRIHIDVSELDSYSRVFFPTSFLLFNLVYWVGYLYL
T2 sequence (P62813 28-455): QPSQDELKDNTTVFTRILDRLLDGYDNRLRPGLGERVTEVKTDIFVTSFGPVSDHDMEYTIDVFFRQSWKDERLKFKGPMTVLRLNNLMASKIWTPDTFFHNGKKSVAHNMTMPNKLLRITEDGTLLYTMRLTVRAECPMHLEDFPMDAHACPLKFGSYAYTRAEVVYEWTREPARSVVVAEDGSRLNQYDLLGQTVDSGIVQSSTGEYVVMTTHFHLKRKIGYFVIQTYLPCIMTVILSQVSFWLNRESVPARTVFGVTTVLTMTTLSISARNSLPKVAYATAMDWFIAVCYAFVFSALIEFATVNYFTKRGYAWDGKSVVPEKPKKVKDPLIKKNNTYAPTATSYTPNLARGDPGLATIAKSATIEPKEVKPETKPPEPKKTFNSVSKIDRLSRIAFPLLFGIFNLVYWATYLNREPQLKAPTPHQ
T2 sequence (P63138 25-474 partner limits assumed): as the sequence (P63138 25-474 partner limits assumed) above
T2 sequence (P18508 39-466): as the sequence (P18508 39-466) above
T5 sequence (P62813 28-455): as the sequence (P62813 28-455) above
T5 sequence (P63138 25-474 partner limits assumed): as the sequence (P63138 25-474 partner limits assumed) above
T5 sequence (P28473 18-467): as the sequence (P28473 18-467) above
T7 sequence (P20236 29-493): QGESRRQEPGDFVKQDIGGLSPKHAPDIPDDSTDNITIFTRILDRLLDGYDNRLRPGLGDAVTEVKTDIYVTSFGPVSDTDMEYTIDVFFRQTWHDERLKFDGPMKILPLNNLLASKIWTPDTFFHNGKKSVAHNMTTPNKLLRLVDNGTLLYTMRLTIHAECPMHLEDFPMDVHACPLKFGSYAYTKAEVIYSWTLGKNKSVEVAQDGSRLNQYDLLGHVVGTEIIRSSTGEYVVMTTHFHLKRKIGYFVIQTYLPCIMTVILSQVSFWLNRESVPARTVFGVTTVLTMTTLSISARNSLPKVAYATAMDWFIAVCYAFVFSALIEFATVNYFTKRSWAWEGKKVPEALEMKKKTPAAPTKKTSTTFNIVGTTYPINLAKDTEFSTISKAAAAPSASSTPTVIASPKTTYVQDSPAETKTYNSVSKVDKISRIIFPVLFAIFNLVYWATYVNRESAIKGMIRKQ
T7 sequence (P63138 25-474 partner limits assumed): as the sequence (P63138 25-474 partner limits assumed) above
T7 sequence (P18508 39-466): as the sequence (P18508 39-466) above
T4 sequence (P23576 29-451): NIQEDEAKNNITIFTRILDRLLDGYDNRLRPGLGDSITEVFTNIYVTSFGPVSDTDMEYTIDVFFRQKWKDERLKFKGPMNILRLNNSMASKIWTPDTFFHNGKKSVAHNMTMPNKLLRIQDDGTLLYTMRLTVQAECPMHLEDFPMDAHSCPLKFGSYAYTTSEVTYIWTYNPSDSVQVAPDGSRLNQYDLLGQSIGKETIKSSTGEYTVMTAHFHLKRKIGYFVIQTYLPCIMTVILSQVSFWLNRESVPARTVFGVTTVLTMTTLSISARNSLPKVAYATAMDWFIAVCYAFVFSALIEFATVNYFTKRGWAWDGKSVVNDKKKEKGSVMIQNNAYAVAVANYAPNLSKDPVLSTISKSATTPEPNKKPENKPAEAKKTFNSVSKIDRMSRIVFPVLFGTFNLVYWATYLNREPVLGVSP
T4 sequence (P63138 25-474 partner limits assumed): as the sequence (P63138 25-474 partner limits assumed) above
T4 sequence (P28473 18-467): as the sequence (P28473 18-467) above
T1 sequence (P23576 29-451): as the sequence (P23576 29-451) above
T1 sequence (P63138 25-474 partner limits assumed): as the sequence (P63138 25-474 partner limits assumed) above
T1 sequence (P18508 39-466): as the sequence (P18508 39-466) above

Which results are given for `O=C(c1ccccn1)c1cnn2c(-c3cc[n+]([O-])cc3)ccnc12` [DOV 315,090, (7-(1-Oxidopyridin-1-ium-4-yl)pyrazolo [1,5-a]pyrimidin-3-yl)(pyridin-2-yl)methanone]?
Emax (α2β2γ2S GABAA-R [1]): 139 ± 23%; EC50 (α2β2γ2S GABAA-R [1]; α2β2γ2S, GABA EC10, mean ± SEM, read-out: pEC50 (converted)): 12 µM; EC50 (α2β2γ2S GABAA-R [1]; α2β2γ2S, GABA EC10, number of oocytes in parentheses, read-out: EC50): 12.5 µM; EC50/DZ EC50 (α2β2γ2S GABAA-R [1]; α2β2γ2S, ratio to diazepam EC50): 482; Emax/DZ Emax (α2β2γ2S GABAA-R [1]; α2β2γ2S, ratio to diazepam Emax): 0.88; EC50/OC EC50 (α2β2γ2S GABAA-R [1]; α2β2γ2S, ratio to ocinaplon EC50): 1.37; Emax/OC Emax (α2β2γ2S GABAA-R [1]; α2β2γ2S, ratio to ocinaplon Emax): 0.92; Emax (α1β2γ2S GABAA-R [2]): 192 ± 4%; EC50 (α1β2γ2S GABAA-R [2]; α1β2γ2S, GABA EC10, number of oocytes in parentheses, read-out: EC50): 4.87 µM; EC50/DZ EC50 (α1β2γ2S GABAA-R [2]; α1β2γ2S, ratio to diazepam EC50): 128; Emax/DZ Emax (α1β2γ2S GABAA-R [2]; α1β2γ2S, ratio to diazepam Emax): 1.33; EC50/OC EC50 (α1β2γ2S GABAA-R [2]; α1β2γ2S, ratio to ocinaplon EC50): 1.66; Emax/OC Emax (α1β2γ2S GABAA-R [2]; α1β2γ2S, ratio to ocinaplon Emax): 1.45; Emax (α5β2γ2S GABAA-R [3]): 68 ± 8%; EC50 (α5β2γ2S GABAA-R [3]; α5β2γ2S, GABA EC10, mean ± SEM, read-out: pEC50 (converted)): 9.33 µM; EC50 (α5β2γ2S GABAA-R [3]; α5β2γ2S, GABA EC10, number of oocytes in parentheses, read-out: EC50): 10.1 µM; EC50/DZ EC50 (α5β2γ2S GABAA-R [3]; α5β2γ2S, ratio to diazepam EC50): 405; Emax/DZ Emax (α5β2γ2S GABAA-R [3]; α5β2γ2S, ratio to diazepam Emax): 0.30; EC50/OC EC50 (α5β2γ2S GABAA-R [3]; α5β2γ2S, ratio to ocinaplon EC50): 2.92; Emax/OC Emax (α5β2γ2S GABAA-R [3]; α5β2γ2S, ratio to ocinaplon Emax): 0.81; IC50 (α2β2γ3 GABAA-R; [3H]Ro15-1788 displacement, α2β2γ3, n = 3, read-out: IC50): 20 µM; IC50 (α2β2γ3 GABAA-R; α2β2γ3, mean ± SEM, n = 3, read-out: pIC50 (converted)): 19.1 µM; IC50/DZ IC50 (α2β2γ3 GABAA-R; α2β2γ3, ratio to diazepam IC50): 120; IC50/OC IC50 (α2β2γ3 GABAA-R; α2β2γ3, ratio to ocinaplon IC50): 0.98; IC50 (α1β2γ3 GABAA-R; [3H]Ro15-1788 displacement, α1β2γ3, n = 3, read-out: IC50): 5.5 µM; IC50 (α1β2γ3 GABAA-R; α1β2γ3, mean ± SEM, n = 3, read-out: pIC50 (converted)): 5.37 µM; IC50/DZ IC50 (α1β2γ3 GABAA-R; α1β2γ3, ratio to diazepam IC50): 25; IC50/OC IC50 (α1β2γ3 GABAA-R; α1β2γ3, ratio to ocinaplon IC50): 2.40; IC50 (α5β2γ3 GABAA-R; [3H]Ro15-1788 displacement, α5β2γ3, n = 3, read-out: IC50): 27 µM; IC50 (α5β2γ3 GABAA-R; α5β2γ3, mean ± SEM, n = 3, read-out: pIC50 (converted)): 26.3 µM; IC50/DZ IC50 (α5β2γ3 GABAA-R; α5β2γ3, ratio to diazepam IC50): 323; IC50/OC IC50 (α5β2γ3 GABAA-R; α5β2γ3, ratio to ocinaplon IC50): 2.59; IC50 (α2β2γ2S GABAA-R [4]; [9]): 24 µM; IC50 (α2β2γ2S GABAA-R [4]; [10]): 23.4 µM; IC50/DZ IC50 (α2β2γ2S GABAA-R [4]; ratio to diazepam IC50): 760; IC50/OC IC50 (α2β2γ2S GABAA-R [4]; ratio to ocinaplon IC50): 0.89; IC50 (α3β2γ2S GABAA-R [5]; [9]): 9.3 µM; IC50 (α3β2γ2S GABAA-R [5]; [10]): 8.32 µM; IC50/DZ IC50 (α3β2γ2S GABAA-R [5]; ratio to diazepam IC50): 170; IC50/OC IC50 (α3β2γ2S GABAA-R [5]; ratio to ocinaplon IC50): 1.09; IC50 (α1β2γ2S GABAA-R [6]; [9]): 7 µM; IC50 (α1β2γ2S GABAA-R [6]; [10]): 6.46 µM; IC50/DZ IC50 (α1β2γ2S GABAA-R [6]; ratio to diazepam IC50): 220; IC50/OC IC50 (α1β2γ2S GABAA-R [6]; ratio to ocinaplon IC50): 1.02; IC50 (α5β2γ2S GABAA-R [7]; [9]): 22 µM; IC50 (α5β2γ2S GABAA-R [7]; [10]): 21.4 µM; IC50/DZ IC50 (α5β2γ2S GABAA-R [7]; ratio to diazepam IC50): 790; IC50/OC IC50 (α5β2γ2S GABAA-R [7]; ratio to ocinaplon IC50): 2.24; plasma concentration as % of the concentration of parent compound (ocinaplon) (in vivo): ~ 38% and 38%; Emax (α3β2γ2S GABAA-R [8]): 340 ± 35%; EC50 (α3β2γ2S GABAA-R [8]; α3β2γ2S, GABA EC10, mean ± SEM, read-out: pEC50 (converted)): 10 µM; EC50 (α3β2γ2S GABAA-R [8]; α3β2γ2S, GABA EC10, number of oocytes in parentheses, read-out: EC50): 10.2 µM; EC50/DZ EC50 (α3β2γ2S GABAA-R [8]; α3β2γ2S, ratio to diazepam EC50): 111; Emax/DZ Emax (α3β2γ2S GABAA-R [8]; α3β2γ2S, ratio to diazepam Emax): 1.46; EC50/OC EC50 (α3β2γ2S GABAA-R [8]; α3β2γ2S, ratio to ocinaplon EC50): 1.27; Emax/OC Emax (α3β2γ2S GABAA-R [8]; α3β2γ2S, ratio to ocinaplon Emax): ~1.87
